Assay results reported in patent US9012404B2, “Compositions and methods for cardiac tissue protection and regeneration” (3D Matrix, Inc., priority 2006, dated 2015).
“Also recorded” adds a separate entry of the source.

Legend:
[1] = tested on: L929 mouse fibroblast cell culture; assay: Cytotoxicity: Agar Diffusion ISO 10993-5; assay type: cell-based; details: L929 mouse fibroblast monolayer
Source text: (§1) Standard in vitro toxicology studies, including EN/ISO tests for cytotoxicity and hemocompatibility, have been completed. The tests below were completed at a FDA certified toxicology testing company (Toxikon Corp, Bedford, Mass.) using established standards of measure on a CardioMatrix material (Tables 3 and 4). The CardioMatrix solution tested in this example comprised various concentrations of CardioMatrix powder in substantially sucrose free aqueous solution.
The Agar Diffusion test (ISO 10993-5) measures a material's effect on cell cultures, which are extremely sensitive to minute quantities of leachable chemicals and readily display characteristic signs of toxicity in the presence of potentially harmful leachables. The biological reactivity of a mammalian monolayer, L929 mouse fibroblast cell culture, in response to the test article was determined as “no-reactivity” in tests.

[2] = tested on: prothrombin coagulation time of human plasma; assay: Prothrombin Time Assay, Human Plasma (ISO 10993-4)
Source text: as §1
Prothrombin Time (Human Plasma, ISO 10993-4) measures the effect of a test article extract on human blood coagulation time. This assay has become a suitable clinical means of determining the presence and functioning ability of prothrombin in the process of coagulation.

[3] = tested on: rabbit blood (red blood cells); assay: Hemolysis: Direct Contact (ISO 10993-4); assay type: cell-based; details: rabbit blood in direct contact, triplicate
Source text: as §1
The hemolysis test (Direct Contact, ISO-10993-4) measures the ability of a material to cause red blood cells to rupture. This test is derived from well-established NIH protocols and is performed in triplicate. This test uses rabbit blood in direct contact with the test material and the degree of hemolysis is measured spectrophotometrically.

rabbits [4] = assay: Rabbit Pyrogenicity (ISO-10993-11); assay type: in vivo; details: intravenous injection of extract at 10 mL/kg
Description: The purpose of the test was to detect the risk of a patient to a febrile reaction as a result of the administration of the test article extract. The test article was prepared by mixing 9 ml of the test article with 9 mL of 0.9% USP Sodium Chloride for Injection (NaCl) and the resulting gel extracted at a ration of 0.2 gm per 1.0 mL. The test article extract was administered by intravenous injection at 10 mL/kg. The rectal temperatures of the injected rabbits were compared with the temperature of a control rabbit similarly injected with 0.9% USP Sodium Chloride for Injection (NaCl). The base-line temperatures of the rabbits, determined no more than 30 minutes prior to injection of the test article extract, were used to exclude rabbits whose body temperatures vary by more than 1° C. from each other and whose temperatures are greater than 39.8° C. Body temperatures were recorded at 30 minute intervals between 1 and 3 hours subsequent to injection.

[5] = tested on: paravertebral muscle of New Zealand white rabbits; details: in vivo
Source text: This test assesses the local effects of material on contact with living tissue. Test article was implanted into paravertebral muscle of 3 New Zealand white rabbits, with negative control (GelFoam) implanted in the contralateral muscle of each animal. Healing was allowed for 2 weeks. Animals were sacrificed and implants excised. Excised implants were examined macroscopically with a magnifying lens and fixed in formalin. Histologic slides of hematoxylin and eosin (H&E) and Mason's Trichrome stained sections were prepared, studied microscopically by a board-certified veterinary pathologist, and evaluated on a scale of 0-3. CardioMatrix implants retained the initial implant volume, collagen fibers, and vascularization of the injection site.

rabbits [6] = details: rabbit, in vivo
Description: A 0.5% w/v peptide CardioMatrix solution was extracted in NaCl and CSO at a ratio of 0.2 gm per 1.0 mL at 70±2° C. for 24 hours. […] Three rabbits were injected intracutaneously, using one side of the animal for the test article extracts and the other side for the control extracts, at 0.2 mL per site. The injected sites were examined at 24, 48, and 72 hours post inoculation for gross evidence of tissue reaction such as erythema, edema, and necrosis. A Primary Irritation Index of 0.5 or less will be considered a negligible irritant, where 0.5 to <2 are slight irritants, 2 to <5 are moderate irritants, and >5 are severe irritants.

[7] = parameters: species or system Sprague Dawley rats; details: rat, in vivo
Source text: To measure the local and whole animal distribution a 14C, carbon radiolabeled version of a Cardiomatrix was generated. The radiolabeled version was internally labeled at the third alanine site (Acetyl-(RADA)-(R-[^14C(U)-Ala]-D-A)-(RADA)2-CONH2) as opposed to a labeled acetyl group which could be cleaved off, in order to better characterize the adsorption, degradation, metabolism and excretion (ADME) of the CardioMatrix material in vivo. The radiolabeled material was then implanted into Sprague Dawley rats in a femur defect model. Urine and stool samples were collected and the radioactivity was counted.

CC(=O)N[C@@H](CCCNC(=N)N)C(=O)N[C@@H](C)C(=O)N[C@@H](CC(=O)O)C(=O)N[C@@H](C)C(=O)N[C@@H](CCCNC(=N)N)C(=O)N[C@@H](C)C(=O)N[C@@H](CC(=O)O)C(=O)N[C@@H](C)C(=O)N[C@@H](CCCNC(=N)N)C(=O)N[C@@H](C)C(=O)N[C@@H](CC(=O)O)C(=O)N[C@@H](C)C(=O)N[C@@H](CCCNC(=N)N)C(=O)N[C@@H](C)C(=O)N[C@@H](CC(=O)O)C(=O)N[C@@H](C)C(N)=O [CardioMatrix, RADARADARADARADA]
Cytotoxicity: Agar Diffusion, biological reactivity [1]: no-reactivity; also recorded: Non-cytotoxic
Initiation of coagulation cascades (hemocompatibility tests) ([2]; direct contact with blood and plasma): do not initiate coagulation cascades
Effect on prothrombin coagulation time ([2]; test article extract, human plasma): did not have an adverse effect
Hemolysis: Direct Contact [3]: Non-hemolytic
Rabbit pyrogenicity, febrile reaction (rabbits [4]): None of the animals injected with the test article extract exhibited signs of pyrogenic response; also recorded: No effect on animals; also recorded: No febrile reaction from any animal
Rabbit Muscle Implant toxicity score [5]: 0.13
Irritant class by Primary Irritation Index (rabbits [6]): “Negligible”
Signs of erythema or edema at injected sites (rabbits [6]): did not exhibit signs of erythema or edema
Time until degraded and excreted [7]: ≤ 28 days
